What was measured:
HIV-1MDR/TM (X4) = format: cell-based
HIV-1MDR/JSL (R5) = experiment: microbe, parasite or virus in culture; format: cell-based
HIV-1 protease = HIV-1 protease (Human immunodeficiency virus type 1 group M subtype B, UniProt P04585); experiment: HIV-1 protease enzyme inhibitory assay; format: biochemical
HIV-1MDR/G (X4) = format: cell-based
HIV-1MDR/MM (R5) = format: cell-based
HIV-1MDR/C (X4) = format: cell-based

For Cc1ccccc1CNC(=O)[C@H]1N(C(=O)[C@@H](O)[C@H](Cc2ccccc2)NC(=O)O[C@H]2CO[C@H]3OCC[C@H]32)CSC1(C)C [Inhibitor 3b], the potency over amprenavir (HIV-1MDR/TM (X4)) was no less than 5 fold, the potency over amprenavir (HIV-1MDR/JSL (R5); HIV-1MDR/JSL) was “over 2 fold” and the potency enhancement (HIV-1 protease; with respect to 3a, enzyme inhibition) was “over 40 fold”. It also gave a potency over amprenavir (HIV-1MDR/G (X4)) of no less than 5 fold, a potency over amprenavir (HIV-1MDR/MM (R5)) of no less than 5 fold and a potency over amprenavir (HIV-1MDR/C (X4)) of no less than 5 fold.
Cc1cc(CO)ccc1CNC(=O)[C@H]1N(C(=O)[C@@H](O)[C@H](Cc2ccccc2)NC(=O)O[C@H]2CO[C@H]3OCC[C@H]32)CSC1(C)C [Inhibitor 16c] was tested, and the “enzyme inhibitory activity (in words)” value (HIV-1 protease) was “sub-nanomolar”.
CC(C)CN(C[C@@H](O)[C@H](Cc1ccccc1)NC(=O)O[C@H]1CCOC1)S(=O)(=O)c1ccc(N)cc1 [APV, Amprenavir, reference compound] was tested, and the IC50 (HIV-1MDR/JSL (R5); Human immunodeficiency virus 1) was 531 ± 69 nM.
Cc1ccccc1CNC(=O)[C@H]1N(C[C@@H](O)[C@H](Cc2ccccc2)NC(=O)O[C@H]2CCOC2)CSC1(C)C [Inhibitor 14a] was tested, and the “reduction in enzyme inhibitory activity” value (HIV-1 protease; relative to corresponding inhibitor 3a) was “over 400 fold”.

— publication PMC3179850 (Bioorganic & medicinal chemistry letters, 2009)
